Test results reported in patent US9339469B2, “R(+)-N-methyl-propargyl-aminoindan” (Teva Pharmaceutical Industries, Ltd., priority 2011, dated 2016).

Columns and labels:
[1] = melt phase, 78 and 90° C. for 24, 72 or 137 hrs
Procedure: Samples intended to degrade under en inert atmosphere were flushed with nitrogen for 5 minutes before closing with a stepper.
The samples were introduced into a pre-heated oven and held at a constant temperature of 78 and 90° C. for 24, 72 or 137 hrs. After completion of the treatment the samples were refrigerated and analyzed.

[2] = in vivo; cited from earlier work

formation of R(+)-N-methyl-PAI (summary of Table 1) [1]: no R(+)-N-methyl-PAI was formed
SMILES: C#CCN[C@@H]1CCc2ccccc21 [rasagiline, R(+)-N-propargyl-1-aminoindan]
absolute bioavailability [2]: about 36%
